# Measured values as given in PMC12479633, “A Phase IIa, Single-Blind, Placebo-Controlled, Parallel-Group Study to Assess Safety, Tolerability, and Pharmacokinetics/Pharmacodynamics of Brensocatib in Adults with Cystic Fibrosis” (Clinical Pharmacokinetics, 2025).
# Several values for one entry are separate records, joined by “and”; a condition that tells them apart may be missing. Identical values can stand only once. Like-named read-outs stand apart in the source and are kept apart here.
# Key:
# [1] = tested on: NSP activity (NE, CatG, PR3); assay: Exposure-response of NSP activity reduction (LOESS regression); format: in vivo, human; conditions: particularly in blood
# Experimental: The NSP activity reduction reached a saturation point at approximately 25 mg, as indicated by the plateau of the associated PK measures. The sensitivity of reduction for brensocatib was greatest for CatG, followed by NE, and PR3 (Fig. 6).
# [2] = set-up: method as in PMID 39574348; conditions: single dose, cited from earlier work
# cathepsin G (CatG) [3] = assay: CatG activity in sputum of adults with CF; format: in vivo, human
# Text: (§1) If a participant experienced an intercurrent event, defined as use of antibiotics during an acute event that could influence NSP levels, the data were not included in the PD analysis. In assessing treatment-emergent adverse events (TEAEs), the “while-on-treatment” strategy was implemented, which encompassed the 28-day period following the final dose of study drug. With this strategy, data collected prior to the occurrence of the intercurrent event, that is, to discontinuation of brensocatib, were included in the analysis.
# (§2) On the basis of the comparability of PK between participants with and without concomitant use of CFTR modulators, NSP activity (NE, CatG, PR3) in blood and sputum was analyzed using the combined data sets without the CFTR modulator stratum.
# neutrophil elastase (NE) [4] = assay: NE activity in sputum of adults with CF; format: in vivo, human
# Text: as §1, §2
# neutrophil elastase (NE) [5] = assay: Active NE in blood (white blood cell pellets) of adults with CF; format: in vivo, human; conditions: for NE, median % reduction relative to baseline: Blood, day 29
# Experimental: (§3) Blood PD samples were collected at screening; predose on days 1, 2, 14, 28, and 29; and at the follow-up visit (day 35). The samples were analyzed at an external service provider to determine the concentrations of active NE, PR3, and CatG in white blood cell pellets using validated enzymatic methods with quantification limits of 87.9 ng/mL for NE and PR3 and 70.3 ng/mL for CatG. The fit-for-purpose methods details were published internally and stored within Insmed’s document repository.
# as §1
# [6] = set-up: method as in PMID 40267423; conditions: NCFBE, ASPEN, cited from earlier work
# proteinase 3 (PR3) = assay: Active PR3 in blood (white blood cell pellets) of adults with CF; format: in vivo, human; conditions: for PR3, median % reduction relative to baseline: Blood, day 29
# Experimental: as §3, §1
# neutrophil elastase (NE) [7] = tested on: neutrophil elastase (NE); set-up: method as in PMID 32897034; conditions: NCFBE, cited from earlier work
# [8] = set-up: method as in PMID 35411669, PMID 29484635; conditions: cited from earlier work
# P-glycoprotein (P-gp) = tested on: P-glycoprotein (P-gp); set-up: method as in PMID 35411669; conditions: cited from earlier work
# [9] = tested on: breast cancer resistance protein (BCRP); set-up: method as in PMID 35411669; conditions: cited from earlier work
# neutrophil elastase (NE) [10] = tested on: neutrophil elastase (NE); set-up: method as in earlier work; conditions: Healthy adults, cited from earlier work
# cathepsin G (CatG) [11] = assay: Active CatG in blood (white blood cell pellets) of adults with CF; format: in vivo, human; conditions: for CatG, median % reduction relative to baseline: Blood, day 29
# Experimental: as §3, §1
# [12] = over the dose range of 10–40 mg QD
smiles,measurement,setting,value
Cn1c(=O)oc2ccc(-c3ccc(C[C@@H](C#N)NC(=O)[C@@H]4CNCCCO4)cc3)cc21 [Brensocatib],dose at which NSP activity reduction reached a saturation point,[1],approximately 25 mg
same,tolerability,[2]; adults with varying degrees of renal impairment,well tolerated
same,effect of renal impairment on brensocatib elimination and exposure,[2],not significantly affected
same,"CatG, median % reduction relative to baseline","cathepsin G (CatG) [3]; 10 mg QD, day 29, n = 5",51.3 (n = 5) %
same,"CatG, median % reduction relative to baseline","cathepsin G (CatG) [3]; 25 mg QD, day 29, n = 3",0 (n = 3) %
same,"CatG, median % reduction relative to baseline","cathepsin G (CatG) [3]; 40 mg QD, day 29, n = 2",0 (n = 2) %
same,"NE, median % reduction relative to baseline","neutrophil elastase (NE) [4]; 10 mg QD, day 29, n = 5",40.7 (n = 5) %
same,"NE, median % reduction relative to baseline","neutrophil elastase (NE) [4]; 25 mg QD, day 29, n = 3",77.8 (n = 3) %
same,"NE, median % reduction relative to baseline","neutrophil elastase (NE) [4]; 40 mg QD, day 29, n = 2",69.9 (n = 2) %
same,"NE, median % reduction relative to baseline","neutrophil elastase (NE) [5]; 10 mg QD, n = 6",35.3 (n = 6) %
same,"NE, median % reduction relative to baseline","neutrophil elastase (NE) [5]; 25 mg QD, n = 7",56.4 (n = 7) %
same,"NE, median % reduction relative to baseline","neutrophil elastase (NE) [5]; 40 mg QD, n = 7",74.0 (n = 7) %
same,median percent reduction of NE activity in blood,neutrophil elastase (NE) [5]; [12],35–74%
same,annualized rate of adjudicated pulmonary exacerbations compared with placebo,[6]; 10 mg or 25 mg QD,significantly reduced
same,lung function decline (FEV1) over 52 weeks compared with placebo,[6]; 25 mg,significantly lower
same,"PR3, median % reduction relative to baseline","proteinase 3 (PR3); 10 mg QD, n = 6",17.3 (n = 6) %
same,"PR3, median % reduction relative to baseline","proteinase 3 (PR3); 25 mg QD, n = 7",40.8 (n = 7) %
same,"PR3, median % reduction relative to baseline","proteinase 3 (PR3); 40 mg QD, n = 7",55.0 (n = 7) %
same,median percent reduction of PR3 activity in blood,proteinase 3 (PR3); [12],17–55%
same,Median % reduction of NE activity in the blood,"neutrophil elastase (NE) [7]; 10 mg, n = 38",30.9% and 30.9 (n = 38) %
same,Median % reduction of NE activity in the blood,"neutrophil elastase (NE) [7]; 25 mg, n = 45",66.5% and 66.5 (n = 45) %
same,urinary excretion,[8]; at steady state,approximately 20%
same,elimination half-life,[8]; single doses of 5–120 mg and QD dosing at 10–40 mg,20 to 30 h
same,steady state accumulation,[8]; single or multiple dosing,approximately twofold
same,substrate status,P-glycoprotein (P-gp),substrate
same,substrate status,[9],substrate
same,Median % reduction of NE activity in the blood,"neutrophil elastase (NE) [10]; 10 mg, n = 6",34.8 (n = 6) %
same,Median % reduction of NE activity in the blood,"neutrophil elastase (NE) [10]; 25 mg, n = 7",42.6 (n = 7) %
same,Median % reduction of NE activity in the blood,"neutrophil elastase (NE) [10]; 40 mg, n = 7",55.1 (n = 7) %
same,"CatG, median % reduction relative to baseline","cathepsin G (CatG) [11]; 10 mg QD, n = 6",75.1 (n = 6) %
same,"CatG, median % reduction relative to baseline","cathepsin G (CatG) [11]; 25 mg QD, n = 7",84.9 (n = 7) %
same,"CatG, median % reduction relative to baseline","cathepsin G (CatG) [11]; 40 mg QD, n = 7",91.3 (n = 7) %
same,median percent reduction of CatG activity in blood,cathepsin G (CatG) [11]; in all doses of brensocatib,75–91%
